Test results from patent publication US11427606B2, “Azithromycin derivatives containing a phosphonium ion as anticancer agents” (Rising Tide Foundation, priority 2017, dated 2022).

The compounds below were run on MDA-231 cancer cells (assay: Inhibition of proliferation assay: cell confluence (IncuCyte imaging)). Conditions: compound at 10 uM; MDA-231 cells; IncuCyte images every 3 h over 4-5 d; relative confluence normalised to time zero.
Format: cell-based
From the text: Inhibition of Proliferation Assay
The confluence value is a surrogate for cell proliferation and growth. The value is expressed as a percent confluence, which represents the fraction of culture dish-surface that is occupied by cells. As the number of cells in the dish increases over time due to proliferation, so will their coverage of that surface increase. Expansion of the cell population on the cell culture-dish surface and confluence have mostly a linear relationship until the cells on the plate surface begin to reach saturation or maximum density.
Confluence is determined based on image analysis. Image based software can identify objects in the image field base on changes to pixel density in a grey scale image. The software can then assign a mask to those pixels within the object. Objects can be ‘gated’ out based on size and shape. To determine cell confluence, images of cells are first masked as objects. The surface area of the image that is masked is measured and compared to the total surface area of the culture dish surface to obtain a percent confluence.
MDA-231 cancer cells were obtained from ATCC. Cells were cultured in Dulbecco's Modified Eagle Medium (DMEM) supplemented with 10% Fetal Bovine Serum (FBS), 2 mM Glutamax, 1 mM Non Essential Amino Acid (NEAA) solution and 1 mM sodium pyruvate. […] Final DMSO concentrations were […]. Images were acquired with an IncuCyte Live Cell Imaging microscopy (Essen Bioscience) at every 3 h under cell culture conditions with 10× objective over 4-5 d. Cell confluence was calculated from one field of view per well using the IncuCyte in-built algorithm. Relative confluence values were obtained by normalising each value to the time zero value in each sample.

Going from CC[C@H]1OC(=O)[C@H](C)[C@@H](O[C@H]2C[C@@](C)(OC)[C@@H](O)[C@H](C)O2)[C@H](C)[C@@H](O[C@@H]2O[C@H](C)C[C@H](N(C)C)[C@H]2O)[C@](C)(O)C[C@@H](C)CN(C)[C@H](C)[C@@H](O)[C@]1(C)O [Azithromycin] to CC[C@H]1OC(=O)[C@H](C)[C@@H](O[C@H]2C[C@@](C)(OC)[C@@H](O)[C@H](C)O2)[C@H](C)[C@@H](O[C@@H]2O[C@H](C)C[C@H](N(C)C)[C@H]2O)[C@](C)(O)C[C@@H](C)CN(C(=O)CCCCC[P+](c2cc(C)cc(C)c2)(c2cc(C)cc(C)c2)c2cc(C)cc(C)c2)[C@H](C)[C@@H](O)[C@]1(C)O [Example 1, {6-[(2R,3S,4R,5R,8R,10R,11R,12S,13S,14R)-11-{[(2S,3R,4S,6R)-4-(dimethylamino)-3-hydroxy-6-methyloxan-2-yl]oxy}-2-ethyl-3,4,10-trihydroxy-13-{[(2R,4R,5S,6S)-5-hydroxy-4-methoxy-4,6-dimethyloxan-2-yl]oxy}-3,5,8,10,12,14-hexamethyl-15-oxo-1-oxa-6-azacyclopentadecan-6-yl]-6-oxohexyl}tris(3,5-dimethylphenyl)phosphoniumhexafluorophosphate(V)], the “% Confluence” value falls from 99.1% to 4.8%.

Going from CC[C@H]1OC(=O)[C@H](C)[C@@H](O[C@H]2C[C@@](C)(OC)[C@@H](O)[C@H](C)O2)[C@H](C)[C@@H](O[C@@H]2O[C@H](C)C[C@H](N(C)C)[C@H]2O)[C@](C)(O)C[C@@H](C)CN(C(=O)CCCCC[P+](c2ccccc2)(c2ccccc2)c2cccc(S(=O)(=O)O)c2)[C@H](C)[C@@H](O)[C@]1(C)O.F[P-](F)(F)(F)(F)F [Example 2, {6-[(2R,3S,4R,5R,8R,10R,11R,12S,13S,14R)-11-{[(2S,3R,4S,6R)-4-(dimethylamino)-3-hydroxy-6-methyloxan-2-yl]oxy}-2-ethyl-3,4,10-trihydroxy-13-{[(2R,4R,5S,6S)-5-hydroxy-4-methoxy-4,6-dimethyloxan-2-yl]oxy}-3,5,8,10,12,14-hexamethyl-15-oxo-1-oxa-6-azacyclopentadecan-6-yl]-6-oxohexyl}diphenyl(3-sulfophenyl)phosphoniumhexafluorophosphate(V)] to CC[C@H]1OC(=O)[C@H](C)[C@@H](O[C@H]2C[C@@](C)(OC)[C@@H](O)[C@H](C)O2)[C@H](C)[C@@H](O[C@@H]2O[C@H](C)C[C@H](N(C)C)[C@H]2O)[C@](C)(O)C[C@@H](C)CN(C(=O)CCCCCCC[P+](c2ccc(OC)cc2)(c2ccc(OC)cc2)c2ccc(OC)cc2)[C@H](C)[C@@H](O)[C@]1(C)O.F[P-](F)(F)(F)(F)F [Example 5, {8-[(2R,3S,4R,5R,8R,10R,11R,12S,13S,14R)-11-{[(2S,3R,4S,6R)-4-(dimethylamino)-3-hydroxy-6-methyloxan-2-yl]oxy}-2-ethyl-3,4,10-trihydroxy-13-{[(2R,4R,5S,6S)-5-hydroxy-4-methoxy-4,6-dimethyloxan-2-yl]oxy}-3,5,8,10,12,14-hexamethyl-15-oxo-1-oxa-6-azacyclopentadecan-6-yl]-8-oxooctyl}tris(4-methoxyphenyl)phosphoniumhexafluorophosphate(V)], the “% Confluence” value falls from 131.8% to 7.8%.

For CC[C@H]1OC(=O)[C@H](C)[C@@H](O[C@H]2C[C@@](C)(OC)[C@@H](O)[C@H](C)O2)[C@H](C)[C@@H](O[C@@H]2O[C@H](C)C[C@H](N(C)C)[C@H]2O)[C@](C)(O)C[C@@H](C)CN(C(=O)CCCCCCC[P+](c2ccc(F)cc2)(c2ccc(F)cc2)c2ccc(F)cc2)[C@H](C)[C@@H](O)[C@]1(C)O [Example 3, {8-[(2R,3S,4R,5R,8R,10R,11R,12S,13S,14R)-11-{[(2S,3R,4S,6R)-4-(dimethylamino)-3-hydroxy-6-methyloxan-2-yl]oxy}-2-ethyl-3,4,10-trihydroxy-13-{[(2R,4R,5S,6S)-5-hydroxy-4-methoxy-4,6-dimethyloxan-2-yl]oxy}-3,5,8,10,12,14-hexamethyl-15-oxo-1-oxa-6-azacyclopentadecan-6-yl]-8-oxooctyl}tris(4-fluorophenyl)phosphonium hexafluorophosphate(V)], the “% Confluence” value was 97.7%.

Same assay, conditions: compound at 100 uM; MDA-231 cells; IncuCyte images every 3 h over 4-5 d; relative confluence normalised to time zero

For CC[C@H]1OC(=O)[C@H](C)[C@@H](O[C@H]2C[C@@](C)(OC)[C@@H](O)[C@H](C)O2)[C@H](C)[C@@H](O[C@@H]2O[C@H](C)C[C@H](N(C)C)[C@H]2O)[C@](C)(O)C[C@@H](C)CN(C)[C@H](C)[C@@H](O)[C@]1(C)O [Azithromycin], the “% Confluence” value was 17%.
